The values that follow come from PMC6332424, “Synthesis and Evaluation of New Pyrazoline Derivatives as Potential Anticancer Agents” (Molecules, 2015).

Series [1] has as its system U251 cells. Put plainly: Detection of apoptotic and necrotic cells (annexin V/ethidium homodimer III staining). Type of series: cell-based, human. The source says:
U251 cells were stained and observed by fluorescence microscope (Figure 4). If the cells are colored green with annexin V, and not stained red with ethidium homodimer III, the cells are judged to be apoptotic. […] The apoptotic and necrotic effects of compound 11 were compared with cisplatin. […] Then, apoptotic/necrotic/healthy cells detection kit protocol was applied according to the manufacturer’s instruction manual (PromoKine, Heidelberg, Germany). After the cells were washed twice with 1 × binding buffer, a staining solution containing 50 µL of 1 × binding buffer, 2 µL of FTIC-Annexin V solution, 2 µL of ethidium homodimer III solution and 2 µL of Hoechst 33342 solution was added and the cells were incubated for 15 min at RT, protected from light. Cells were washed with 1 × binding buffer and analyzed by all-in-one fluorescence microscope Biorevo Fluorescence BZ-9000 (Keyence, Osaka, Japan).

Series [2] concerns supercoiled pUC19 DNA. Put plainly: DNA cleavage assay (agarose gel electrophoresis). Type of series: biochemical. The settings on record: 37 °C, 1.5 h. On the procedure: The DNA cleavage activities of compound 11 and cisplatin at the IC50 concentrations in water and Tris/boric acid buffer in the presence and absent of the iron complex, H2O2 and ascorbic acid as an activator were studied using supercoiled pUC19 DNA (Figure 5). The reaction mixture was incubated at 37 °C for 1.5 h and then agarose gel electrophoresis was performed at 100 V for 40 min. DNA was visualized by photographing the fluorescence of intercalated ethidium bromide under a UV illuminator. […] Thus, it is considered that DNA-cleavage was caused by oxygen activation.
The DNA cleavage activities of the compounds were studied using supercoiled pUC19 DNA and analyzed by agarose (Takara, Kyoto, Japan) gel electrophoresis Mupid-2x (Mupid, Tokyo, Japan). pUC19 DNA (2 µg) was treated with compounds in water and Tris/boric acid (Nacalai Tesque, Kyoto, Japan) buffer (10 mM, pH 8.5) in the presence and absence of iron (II) sulfate heptahydrate (FeSO4·7H2O; 30 µM) (Wako Pure Chemical Industries), hydrogen peroxide (H2O2; 30 µM) (Tokyo Chemical Industry Co., Tokyo, Japan) and ascorbic acid (30 µM) (Tokyo Chemical Industry Co.) as an activator. […] DNA was visualized by photographing the fluorescence of intercalated ethidium bromide under a UV illuminator (Nippon Genetics Co., Tokyo, Japan).

The test system of series [3] is AsPC-1, U87 and U251 cell lines. Put plainly: MTT assay, overall activity on the three cell lines (in words). It counts as cell-based, human. The settings on record: 10–500 µM, all three cell lines. On the procedure:
(§1) U251 and U87 human glioblastoma cells were incubated in Dulbecco’s-modified Eagle’s medium (DMEM) (Wako Pure Chemical Industries, Osaka, Japan) supplemented with 10% fetal bovine serum (FBS) (Equitech-Bio, Kerrville, TX, USA). AsPC-1 human pancreas adenocarcinoma and Jurkat human leukemic T-cells were incubated RPMI 1640 (Wako Pure Chemical Industries), supplemented with 10% FBS. Peripheral blood mononuclear cells (PBMC) (Precision Bioservices, Frederick, MD, USA) were incubated RPMI 1640 and supplemented with 10% human serum AB (HS) (Gemini, Woodland, CA, USA). […] Growing cells were plated at 1 × 10^5 cells/mL into 24-well microtiter tissue culture plates (Iwaki brand Asahi Glass Co., Chiba, Japan) and incubated for 24 h before the addition of the drugs (the optimal cell number for cytotoxicity assays was determined in preliminary experiments). […] The level of cellular reduction of 3-(4,5-dimethylthiazol-2-yl)-2,5-diphenyltetrazolium bromide (MTT) (Dojindo Molecular Technologies, Kumamoto, Japan) was quantified as previously described in the literature with small modifications. […] After the solubilized crystals were diluted (1:10) with DMSO, 100 µL was transferred to wells of 96-well microtiter plates (Iwaki brand Asahi Glass Co.) and the absorbance at 550 nm was measured using a microplate spectrophotometer Infinitive M1000 (Tecan, Groding, Austria). […]

Series [4] concerns Jurkat human leukemic T-cells. Put plainly: MTT cell viability, Jurkat cells (tumor selectivity). Type of series: cell-based. On the procedure: as §1
Series [5] relates to peripheral blood mononuclear cells (PBMC). Put plainly: MTT cell viability, PBMC (tumor selectivity). It counts as cell-based, human. The following applies: Figure 3b, read-out: IC50 against PBMC. On the procedure: as §1
Series [6] deals with AsPC-1 human pancreatic adenocarcinoma cell line. Put plainly: MTT assay for cytotoxicity, AsPC-1 cells. It counts as cell-based. The following applies: 24 h incubation, read-out: IC50 AsPC1 Cell Line. On the procedure:
(§2) U251 and U87 human glioblastoma cells were incubated in Dulbecco’s-modified Eagle’s medium (DMEM) (Wako Pure Chemical Industries, Osaka, Japan) supplemented with 10% fetal bovine serum (FBS) (Equitech-Bio, Kerrville, TX, USA). AsPC-1 human pancreas adenocarcinoma and Jurkat human leukemic T-cells were incubated RPMI 1640 (Wako Pure Chemical Industries), supplemented with 10% FBS. Peripheral blood mononuclear cells (PBMC) (Precision Bioservices, Frederick, MD, USA) were incubated RPMI 1640 and supplemented with 10% human serum AB (HS) (Gemini, Woodland, CA, USA). All media were supplemented with 89 µg/mL streptomycin (Meiji Seika Pharma, Tokyo, Japan) and cells were incubated at 37 °C in a humidified atmosphere of 95% air and 5% CO2. Growing cells were plated at 1 × 10^5 cells/mL into 24-well microtiter tissue culture plates (Iwaki brand Asahi Glass Co., Chiba, Japan) and incubated for 24 h before the addition of the drugs (the optimal cell number for cytotoxicity assays was determined in preliminary experiments). Stock solutions (1 mM, 5 mM, 10 mM, 20 mM, and 50 mM) of compounds and cisplatin (Sigma-Aldrich, St. Louis, MO, USA) were prepared in dimethyl sulfoxide (DMSO; Wako Pure Chemical Industries) and in dimethylformamide (DMF; Wako Pure Chemical Industries) respectively, then were added to fresh culture medium. The concentration of DMSO and DMF in the final culture medium was 1%. The level of cellular reduction of 3-(4,5-dimethylthiazol-2-yl)-2,5-diphenyltetrazolium bromide (MTT) (Dojindo Molecular Technologies, Kumamoto, Japan) was quantified as previously described in the literature with small modifications. The tested compounds were incubated with cells to give a final concentration in the range 50–500 µM for 24 h. At the end of this period, MTT was added to cells in culture to give a final concentration of 0.275 mg/mL and incubated further for 4 h at 37 °C. The medium was removed and the formazan crystals were solubilized by addition of 100 µL DMSO to each well. After the solubilized crystals were diluted (1:10) with DMSO, 100 µL was transferred to wells of 96-well microtiter plates (Iwaki brand Asahi Glass Co.) and the absorbance at 550 nm was measured using a microplate spectrophotometer Infinitive M1000 (Tecan, Groding, Austria). Every concentration was repeated in three wells and IC50 values were defined as the drug concentrations which reduced absorbance to 50 % of control values.
For orientation: Tetrazolium assays rely on reduction of a dye to a coloured formazan, in cell work by metabolically active cells.

Series [7] relates to U251 human glioblastoma cell line. Put plainly: MTT assay for cytotoxicity, U251 cells. It counts as cell-based. The following applies: 24 h incubation. On the procedure: as §2
Series [8] concerns U87 human glioblastoma cell line. Put plainly: MTT assay for cytotoxicity, U87 cells. Type of series: cell-based. The following applies: for IC50: MTT, 24 h incubation. On the procedure:
as §2

“Also recorded” adds a separate entry of the source. Some results are limits rather than exact numbers.

Broadly, the IC50 is the concentration needed to halve the response being measured. “1-[(5-(4-Methylphenyl)-1,3,4-oxadiazol-2-yl)thioacetyl]-3-(2-thienyl)-5-(4-chlorophenyl)-2-pyrazoline [Compound 11]”: the apoptotic/necrotic effect entry in series [1] (IC50 (11.9 µM, high concentration), 3 h) is on record as “mainly induced necrosis”; in series [1] (IC50 concentration, 24 h), “late stage apoptotic or necrotic effect”; in series [1] (low concentration (1.5 µM), 3 h) it was “exhibited apoptotic phenotype; also recorded: induced apoptosis; also recorded: showed apoptotic activity”. The “DNA-cleaving efficiency compared with cisplatin” value in series [2] (IC50 concentrations, iron (II) complex system) was “more significant than cisplatin; also recorded: much greater than cisplatin”. Also, the “DNA cleavage efficiency with vs without FeSO4, H2O2 and ascorbic acid” value in series [2] (pUC19 DNA, 30 µM each activator) is “clearly enhanced”. Also, the “cytotoxic activity (in words)” value in series [3] is “good activity”. In addition, the IC50 in series [4] (MTT, Figure 3b, read-out: IC50 against Jurkat human leukemic T-cells) was 90 µM; in series [5], about 1000 µM. Moreover, the “tumor selectivity in blood cells (PBMC vs Jurkat)” value in series [4] (ratio of IC50 PBMC to IC50 Jurkat) is “more than 10 times”.
In the case of “1-[(1-Phenyl-1H-tetrazol-5-yl)thioacetyl]-3-(2-thienyl)-5-(4-chlorophenyl)-2-pyrazoline [Compound 3]”, the half-maximal inhibitory concentration (IC50) in series [6], in series [7] and in series [8] was over 500 µM throughout.
In the case of “1-[(1-(4-Hydroxyphenyl)-1H-tetrazol-5-yl)thioacetyl]-3-(2-thienyl)-5-(4-chlorophenyl)-2-pyrazoline [Compound 4]”, the IC50 is 65 ± 5.4 µM in series [6], over 500 µM in series [7] and over 500 µM in series [8].
Consider `N.N.[Cl][Pt][Cl]` [Cisplatin, reference compound], for which, in series [1] (IC50 concentration, 24 h), the apoptotic/necrotic effect result is “only apoptotic effects”. Also, the IC50 was 22.5 ± 2 µM in series [6], 4.9 ± 1 µM in series [7] and 14.8 ± 1.4 µM in series [8].
Consider “1-[(5-(4-Methoxyphenyl)-1,3,4-oxadiazol-2-yl)thioacetyl]-3-(2-thienyl)-5-(4-chlorophenyl)-2-pyrazoline [Compound 12]”, for which the “cytotoxicity on U87 cell line (in words)” value in series [8] is reported as “no significant cytotoxicity”.
“1-[(1-Methyl-1H-tetrazol-5-yl)thioacetyl]-3-(2-thienyl)-5-(4-chlorophenyl)-2-pyrazoline [Compound 2]”: the IC50 in series [6], in series [7] and in series [8] was over 500 µM throughout.
On to “1-[(Pyrimidin-2-yl)thioacetyl]-3-(2-thienyl)-5-(4-chlorophenyl)-2-pyrazoline [Compound 7]”, for which the figures for the IC50 in series [6], in series [7] and in series [8] were 236 ± 36.4 µM, over 500 µM and over 500 µM, respectively.
On to “1-[(5-Phenyl-1,3,4-oxadiazol-2-yl)thioacetyl]-3-(2-thienyl)-5-(4-chlorophenyl)-2-pyrazoline [Compound 8]”, for which the results for the half-maximal inhibitory concentration (IC50) in series [6], in series [7] and in series [8] were 139 ± 26.8 µM, 393 ± 60.4 µM and over 500 µM, respectively.
Regarding “1-[(1-(2-(Dimethylamino)ethyl)-1H-tetrazol-5-yl)thioacetyl]-3-(2-thienyl)-5-(4-chlorophenyl)-2-pyrazoline [Compound 5]”, the IC50 in series [6] was 216 ± 29.7 µM; in series [7], over 500 µM; in series [8], over 500 µM.
On to “1-[(5-(Pyridin-3-yl)-1,3,4-oxadiazol-2-yl)thioacetyl]-3-(2-thienyl)-5-(4-chlorophenyl)-2-pyrazoline [Compound 9]”, for which the IC50 in series [6] was 108 ± 30.1 µM; in series [7] it was over 500 µM; in series [8] it was over 500 µM.
As to “1-[(5-(4-Chlorophenyl)-1,3,4-oxadiazol-2-yl)thioacetyl]-3-(2-thienyl)-5-(4-chlorophenyl)-2-pyrazoline [Compound 10]”, in series [8], it took 251 ± 30.4 µM to reach half-maximal inhibition (IC50).
Consider “1-[(5-Methyl-1,3,4-thiadiazol-2-yl)thioacetyl]-3-(2-thienyl)-5-(4-chlorophenyl)-2-pyrazoline [Compound 6]”, for which the IC50 in series [6] is 199 ± 32.8 µM; in series [7], over 500 µM; in series [8], over 500 µM.
